Reference: US20090041839A1, “PHARMACEUTICAL COMPOSITIONS FOR THE TREATMENT OF PAIN” (priority 2007, published 2009)
Read-outs that look alike come from different tables or passages of the source.

Columns and labels:
[1] = Single escalating dose, age and food-effect pharmacokinetic study of T-62 soft gelatin capsules (Example 11); assay type: in vivo; conditions: human, plasma, po; for AUC(0-inf) / Cmax / AUC(0-t): arithmetic mean (SD); for AUC(0-t): read-out: AUC0-48; for Tmax: median
Description: A single-center, 3-part study: Parts A and B were randomized, double-blind, and placebo-controlled, and evaluated the safety, tolerability, and pharmacokinetics of single, escalating dose levels of a T-62 composition in soft gelatin capsules (oral dosage form 4) in young healthy subjects (Part A), and a single dose of a T-62 composition in soft gelatin capsules (oral dosage form 4) in elderly healthy subjects (Part B). In Part C, the effect of food on the bioavailability of a single dose of T-62 (oral dosage form 4) in young healthy subjects was evaluated in an open label, randomized, crossover fashion.
Part A: The dose escalation phase of the study consisted of 6 cohorts of 12 young (18-45 years of age) healthy volunteers, a total of 72 subjects, randomly assigned in a 3:1 allocation to receive a single dose of either T-62 or placebo under fasted conditions. For all cohorts, subjects fasted for a minimum of 7 hours pre-dose to 4 hours post-dose. Subjects in the first cohort received a single dose of 100 mg of T-62 (n=9) or placebo (n=3). Subsequent cohorts of 12 new subjects received placebo or a higher dose level of T-62: Nine subjects in each cohort received a total of 2×100, 4×100, 8×100, 10×100 or 12×100 mg capsules of T-62; three subjects per dose level received placebo.
Part B: A total of 15 elderly subjects (≧65 years of age) were randomly assigned in a 4:1 allocation to receive a single dose of 4×100 mg of T-62 (n=12) or placebo (n=3) under fasted conditions, i.e., subjects were fasted for a minimum of 7 hours pre-dose to 4 hours post-dose.
Part C: A single cohort of 16 young (18-45 years of age) healthy volunteers were enrolled to evaluate the effect of food on the bioavailability and pharmacokinetics of a single-dose of 4×100 mg soft gelatin capsules of T-62. Subjects were randomly assigned in a 1:1 allocation to 1 of 2 treatment sequences (i.e., fed/fasted or fasted/fed) in a crossover fashion.
Each subject in Parts A and B completed Screening, Baseline, Treatment, and Follow-Up Phases. The Screening Phase was conducted on an outpatient basis within 30 days, but no less than 3 days, prior to the start of the Baseline Phase. The Baseline Phase consisted of clinical research unit (CRU) admission and final qualification assessments. The Treatment Phase was comprised of dosing, post-treatment safety assessments, and blood collections. Subjects were discharged approximately 50 hours after study drug administration on Day 3. The Follow-Up Phase occurred 2 to 4 days after discharge from the CRU.
Each subject in Part C completed a Screening Phase, Baseline and Treatment Phases for both crossover Dosing Periods I and II, and a single Follow-Up Phase. The Screening Phase was conducted on an outpatient basis within 30 days, but no less than 3 days, prior to the start of the Baseline Phase for Dosing Period I. Each Baseline Phase consisted of CRU admission and final/continuing qualification assessments. Each Treatment Phase was comprised of dosing, post-treatment safety assessments, and blood collections. T-62 was administered and post-treatment assessments were conducted on Day 1 of Dosing Period I. Subjects were discharged approximately 50 hours after study drug administration on Day 3. Following a 3-day washout, subjects crossed over and entered Dosing Period II. Subjects were re-admitted to the CRU one day before T-62 administration in Dosing Period II for Baseline assessments. T-62 was be administered and post-treatment assessments were conducted on Day 1 of Dosing Period II. Subjects were discharged approximately 50 hours after study drug administration on Day 3. The Follow-Up Phase occurred 2 to 4 days after discharge from the CRU following Dosing Period II. For each Dosing period, subjects randomized to receive T-62 under fed conditions were given a high fat breakfast on Day 1 about half an hour prior to dosing. Fasting subjects were not allowed to eat any food beginning a minimum of 7 hours pre-dose to 4 hours post-dose. […]

adenosine A1 receptors = conditions: Li et al. 2003, U.S. Pat. No. 6,248,774 and No. 6,489,356, cited from earlier work
[2] = 100 mg, Part A, young healthy subjects, fasted, single oral dose 100 mg (oral dosage form 4), n = 9
[3] = 200 mg, Part A, young healthy subjects, fasted, single oral dose 2 × 100 mg (oral dosage form 4), n = 9
[4] = 400 mg, Part A, young healthy subjects, fasted, single oral dose 4 × 100 mg (oral dosage form 4), n = 9
[5] = 400 mg, Part B, elderly healthy subjects, fasted, single oral dose 4 × 100 mg (oral dosage form 4), n = 12
[6] = 400 mg, Part C, Fasted, young healthy subjects, single oral dose 4 × 100 mg (oral dosage form 4), n = 14
[7] = 400 mg, Part C, Fed, young healthy subjects, single oral dose 4 × 100 mg (oral dosage form 4), n = 16
[8] = 800 mg, Part A, young healthy subjects, fasted, single oral dose 8 × 100 mg (oral dosage form 4), n = 9
[9] = 1000 mg, Part A, young healthy subjects, fasted, single oral dose 10 × 100 mg (oral dosage form 4), n = 9
[10] = 1200 mg, Part A, young healthy subjects, fasted, single oral dose 12 × 100 mg (oral dosage form 4), n = 9

Structure (SMILES): Nc1sc2c(c1C(=O)c1ccc(Cl)cc1)CCCC2 [T-62, (2-amino-4,5,6,7-tetrahydrobenzo[b]thiophen-3-yl)(4-chlorophenyl)-methanone]
- AUC(0-inf) [1, 2]: 106 ng·h/mL
- Cmax [1, 2]: 30 ng/mL
- AUC(0-t) [1, 2]: 92.2 ng·h/mL
- Tmax [1, 2]: 2 h
- AUC(0-inf) [1, 3]: 242 ng·h/mL
- Cmax [1, 3]: 47.7 ng/mL
- AUC(0-t) [1, 3]: 224 ng·h/mL
- Tmax [1, 3]: 1 h
- AUC(0-inf) [1, 4]: 557 ng·h/mL
- Cmax [1, 4]: 110 ng/mL
- AUC(0-t) [1, 4]: 525 ng·h/mL
- Tmax [1, 4]: 2 h
- AUC(0-inf) [1, 5]: 1290 ng·h/mL
- Cmax [1, 5]: 227 ng/mL
- AUC(0-t) [1, 5]: 1200 ng·h/mL
- Tmax [1, 5]: 1.8 h
- AUC(0-inf) [1, 6]: 576 ng·h/mL
- Cmax [1, 6]: 95.8 ng/mL
- AUC(0-t) [1, 6]: 533 ng·h/mL
- Tmax [1, 6]: 2.3 h
- AUC(0-inf) [1, 7]: 933 ng·h/mL
- Cmax [1, 7]: 154 ng/mL
- AUC(0-t) [1, 7]: 884 ng·h/mL
- Tmax [1, 7]: 3.5 h
- AUC(0-inf) [1, 8]: 1020 ng·h/mL
- Cmax [1, 8]: 165 ng/mL
- AUC(0-t) [1, 8]: 978 ng·h/mL
- Tmax [1, 8]: 3.5 h
- AUC(0-inf) [1, 9]: 1460 ng·h/mL
- Cmax [1, 9]: 213 ng/mL
- AUC(0-t) [1, 9]: 1370 ng·h/mL
- Tmax [1, 9]: 3 h
- AUC(0-inf) [1, 10]: 1200 ng·h/mL
- Cmax [1, 10]: 157 ng/mL
- AUC(0-t) [1, 10]: 1110 ng·h/mL
- Tmax [1, 10]: 3.5 h
- Adverse side effects (adenosine A1 receptors; compared with administration of adenosine): devoid of the adverse side effects associated with administration of adenosine
- Effect on inflammatory and neuropathic pain (adenosine A1 receptors; orally effective): reduce inflammatory and neuropathic pain
